pIC50: −log10 of the molar value.

The text below walks through data of patent publication US20240083897A1, “GCN2 MODULATING COMPOUNDS AND USES THEREOF” (HiberCell, Inc., priority 2021, published 2024).

Sequence of GCN2 (Q9P2K8 whole entry): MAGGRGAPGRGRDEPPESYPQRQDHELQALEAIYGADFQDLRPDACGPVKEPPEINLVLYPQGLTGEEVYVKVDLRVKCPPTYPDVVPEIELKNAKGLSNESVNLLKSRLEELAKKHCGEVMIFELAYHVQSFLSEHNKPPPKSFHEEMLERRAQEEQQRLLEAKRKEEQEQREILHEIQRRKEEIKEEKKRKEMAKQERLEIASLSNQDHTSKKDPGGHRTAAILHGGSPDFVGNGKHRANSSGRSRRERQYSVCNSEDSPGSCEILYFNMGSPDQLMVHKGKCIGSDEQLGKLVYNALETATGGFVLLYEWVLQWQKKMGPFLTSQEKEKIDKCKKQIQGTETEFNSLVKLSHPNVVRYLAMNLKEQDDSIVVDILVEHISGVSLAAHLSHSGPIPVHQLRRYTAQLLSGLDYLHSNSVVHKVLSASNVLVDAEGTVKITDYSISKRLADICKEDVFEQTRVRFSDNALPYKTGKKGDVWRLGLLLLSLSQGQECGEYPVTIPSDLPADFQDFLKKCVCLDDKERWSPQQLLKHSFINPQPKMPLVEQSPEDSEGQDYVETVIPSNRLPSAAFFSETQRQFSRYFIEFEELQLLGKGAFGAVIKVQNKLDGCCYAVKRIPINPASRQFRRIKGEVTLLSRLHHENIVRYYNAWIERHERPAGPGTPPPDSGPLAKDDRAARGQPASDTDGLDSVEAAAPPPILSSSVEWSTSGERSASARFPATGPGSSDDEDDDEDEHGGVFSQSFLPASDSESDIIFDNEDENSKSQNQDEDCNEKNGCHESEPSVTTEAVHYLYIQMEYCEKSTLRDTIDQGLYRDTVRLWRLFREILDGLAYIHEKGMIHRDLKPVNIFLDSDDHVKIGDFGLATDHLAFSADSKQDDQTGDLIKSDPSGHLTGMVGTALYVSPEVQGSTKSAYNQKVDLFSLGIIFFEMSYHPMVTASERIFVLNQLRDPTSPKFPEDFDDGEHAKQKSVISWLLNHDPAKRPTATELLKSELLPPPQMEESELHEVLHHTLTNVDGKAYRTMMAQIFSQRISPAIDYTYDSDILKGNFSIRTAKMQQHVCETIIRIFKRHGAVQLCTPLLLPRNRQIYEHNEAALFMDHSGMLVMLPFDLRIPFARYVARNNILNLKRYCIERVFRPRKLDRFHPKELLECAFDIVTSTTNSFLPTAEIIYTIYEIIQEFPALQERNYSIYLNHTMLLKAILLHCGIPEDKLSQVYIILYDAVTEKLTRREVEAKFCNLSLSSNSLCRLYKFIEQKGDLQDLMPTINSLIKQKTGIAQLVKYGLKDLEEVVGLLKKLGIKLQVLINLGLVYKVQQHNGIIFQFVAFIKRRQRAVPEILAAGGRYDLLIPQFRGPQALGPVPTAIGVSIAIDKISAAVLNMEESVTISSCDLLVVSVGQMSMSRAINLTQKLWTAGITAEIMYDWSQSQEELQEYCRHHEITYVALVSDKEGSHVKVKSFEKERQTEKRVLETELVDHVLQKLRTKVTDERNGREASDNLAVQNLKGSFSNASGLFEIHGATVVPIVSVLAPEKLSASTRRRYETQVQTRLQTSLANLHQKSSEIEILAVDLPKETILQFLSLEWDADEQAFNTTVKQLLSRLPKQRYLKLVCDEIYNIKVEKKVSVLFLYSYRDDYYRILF

The first test concerns the target GCN2 (Homo sapiens (Human), UniProt Q9P2K8). Put plainly: TR-FRET biochemical assay for inhibition of GCN2.
Details: not given
(Time-resolved FRET reads energy transfer from a long-lived donor to a nearby acceptor.)
As to `COc1ncc(C#N)cc1S(=O)(=O)Nc1ccc(F)c(-c2ccc3c(-c4ccn(C)n4)ncn3c2)c1F` [Compound 53, 5-cyano-N-[2,4-difluoro-3-[1-(1-methylpyrazol-3-yl)imidazo[1,5-a]pyridin-6-yl]phenyl]-2-methoxypyridine-3-sulfonamide], the negative-log IC50 (pIC50) – broadly, −log10 of the IC50, conventionally taken in molar units – is 6.30 to 7.30.

`Cc1ncc(F)cc1S(=O)(=O)Nc1ccc(F)c(-c2ccc3c(-c4ccn(C)n4)ncn3c2)c1F` [Compound 54, N-[2,4-difluoro-3-[1-(1-methylpyrazol-3-yl)imidazo[1,5-a]pyridin-6-yl]phenyl]-5-fluoro-2-methylpyridine-3-sulfonamide] had a pIC50 of 6.30 to 7.30.

In turn, `COc1ncc(Cl)cc1S(=O)(=O)Nc1ccc(F)c(-c2ccc3c(-n4nccn4)ncn3c2)c1F` [Compound 55-2, 5-chloro-N-[2,4-difluoro-3-[1-(1,2,3-triazol-2-yl)imidazo[1,5-a]pyridin-6-yl]phenyl]-2-methoxypyridine-3-sulfonamide] had a pIC50 of 6.00 to 6.30.

Staying with this test, now noted: GCN2 2 nM, 100 nM GFP-eIF2a, 150 μM ATP, TR-FRET.
Regarding `COc1ncc(F)cc1S(=O)(=O)Nc1ccc(F)c(-c2ccn3c(-c4ncc[nH]4)ncc3c2F)c1F` [Compound 47, N-[2,4-difluoro-3-[8-fluoro-3-(1H-imidazol-2-yl)imidazo[1,5-a]pyridin-7-yl]phenyl]-5-fluoro-2-methoxypyridine-3-sulfonamide], the pIC50 is > 7.30.

For `COc1ncc(Cl)cc1S(=O)(=O)Nc1ccc(F)c(-c2ccc3c(-c4ncc(C)[nH]4)ncn3c2)c1F` [Compound 48, 5-chloro-N-[2,4-difluoro-3-[1-(4-methyl-3H-imidazol-2-yl)imidazo[1,5-a]pyridine-6-yl]phenyl]-2-methoxypyridine-3-sulfonamide], the negative-log IC50 (pIC50) was > 7.30.

`COc1ncc(Cl)cc1S(=O)(=O)Nc1ccc(F)c(-c2ccc3c(-c4ncc(CO)[nH]4)ncn3c2)c1F` [Compound 49, 5-chloro-N-(2,4-difluoro-3-[1-[4-(hydroxymethyl)-3H-imidazol-2-yl]imidazo[1,5-a]pyridin-6-yl]phenyl)-2-methoxypyridine-3-sulfonamide]: the negative-log IC50 (pIC50) is > 7.30.

As for `Cc1cnc(-c2ncn3cc(-c4c(F)ccc(NS(=O)(=O)c5cc(F)cnc5C)c4F)ccc23)[nH]1` [Compound 50, N-[2,4-difluoro-3-[1-(4-methyl-3H-imidazol-2-yl)imidazo[1,5-a]pyridin-6-yl]phenyl]-5-fluoro-2-methylpyridine-3-sulfonamide], the negative-log IC50 (pIC50) is > 7.30.

With `Cc1ncc(F)cc1S(=O)(=O)Nc1ccc(F)c(-c2ccc3c(-c4ncc(CO)[nH]4)ncn3c2)c1F` [Compound 51, N-(2,4-difluoro-3-[1-[4-(hydroxymethyl)-3H-imidazol-2-yl]imidazo[1,5-a]pyridin-6-yl]phenyl)-5-fluoro-2-methylpyridine-3-sulfonamide], the negative logarithm of the IC50 (pIC50) was > 7.30.

Regarding `COc1ncc(Cl)cc1S(=O)(=O)Nc1ccc(F)c(-c2ccc3c(-c4nc(Cl)c[nH]4)ncn3c2)c1F` [Compound 52, 5-chloro-N-[3-[1-(4-chloro-1H-imidazol-2-yl)imidazo[1,5-a]pyridin-6-yl]-2,4-difluorophenyl]-2-methoxypyridine-3-sulfonamide], the negative-log IC50 (pIC50) is > 7.30.

As for `COc1ncc(Cl)cc1S(=O)(=O)Nc1ccc(F)c(-c2ccc3c(-n4ccnn4)ncn3c2)c1F` [Compound 55-1, 5-chloro-N-[2,4-difluoro-3-[1-(1,2,3-triazol-1-yl)imidazo[1,5-a]pyridin-6-yl]phenyl]-2-methoxypyridine-3-sulfonamide], the pIC50 is > 7.30.

For the molecule `Cc1cnc(-c2ncn3cc(-c4c(F)ccc(NS(=O)(=O)c5cc(Cl)cnc5C)c4F)ccc23)[nH]1` [Compound 56, 5-chloro-N-[2,4-difluoro-3-[1-(4-methyl-3H-imidazol-2-yl)imidazo[1,5-a]pyridine-6-yl]phenyl]-2-methylpyridine-3-sulfonamide], the pIC50 was > 7.30.

As for `COc1ncc(Cl)cc1S(=O)(=O)Nc1ccc(F)c(-c2ccc3c(-c4nnc(C)[nH]4)ncn3c2)c1F` [Compound 57, 5-chloro-N-[2,4-difluoro-3-[1-(5-methyl-4H-1,2,4-triazol-3-yl)imidazo[1,5-a]pyridin-6-yl]phenyl]-2-methoxypyridine-3-sulfonamide], the negative logarithm of the IC50 (pIC50) was > 7.30.

For the molecule `COc1ncc(F)cc1S(=O)(=O)Nc1ccc(F)c(-c2ccc3c(-c4nnc(C)[nH]4)ncn3c2)c1F` [Compound 58, N-[2,4-difluoro-3-[1-(5-methyl-4H-1,2,4-triazol-3-yl)imidazo[1,5-a]pyridin-6-yl]phenyl]-5-fluoro-2-methoxypyridine-3-sulfonamide], the pIC50 is > 7.30.

Regarding `COc1ncc(C#N)cc1S(=O)(=O)Nc1ccc(F)c(-c2ccc3c(-c4nnc(C)[nH]4)ncn3c2)c1F` [Compound 59, 5-cyano-N-[2,4-difluoro-3-[1-(5-methyl-4H-1,2,4-triazol-3-yl)imidazo[1,5-a]pyridin-6-yl]phenyl]-2-methoxypyridine-3-sulfonamide], the negative-log IC50 (pIC50) is > 7.30.

Turning to `Cc1nnc(-c2ncn3cc(-c4c(F)ccc(NS(=O)(=O)c5cc(F)cnc5C)c4F)ccc23)[nH]1` [Compound 60, N-[2,4-difluoro-3-[1-(5-methyl-4H-1,2,4-triazol-3-yl)imidazo[1,5-a]pyridin-6-yl]phenyl]-5-fluoro-2-methylpyridine-3-sulfonamide], the pIC50 was > 7.30.

Turning to `Cc1nnc(-c2ncn3cc(-c4c(F)ccc(NS(=O)(=O)c5cc(Cl)cnc5C)c4F)ccc23)[nH]1` [Compound 61, 5-chloro-N-[2,4-difluoro-3-[1-(5-methyl-4H-1,2,4-triazol-3-yl)imidazo[1,5-a]pyridin-6-yl]phenyl]-2-methylpyridine-3-sulfonamide], the pIC50 is > 7.30.

Consider `Cc1ncc(Cl)cc1S(=O)(=O)Nc1ccc(F)c(-c2ccc3c(-c4ccn(C)n4)ncn3c2)c1F` [Compound 62, 5-chloro-N-[2,4-difluoro-3-[1-(1-methylpyrazol-3-yl)imidazo[1,5-a]pyridin-6-yl]phenyl]-2-methylpyridine-3-sulfonamide], for which the negative-log IC50 (pIC50) is > 7.30.

In the case of `COc1ncc(Cl)cc1S(=O)(=O)Nc1ccc(F)c(-c2ccc3c(-n4cnnn4)ncn3c2)c1F` [Compound 63, 5-chloro-N-[2,4-difluoro-3-[1-(1,2,3,4-tetrazol-1-yl)imidazo[1,5-a]pyridin-6-yl]phenyl]-2-methoxypyridine-3-sulfonamide], the pIC50 was > 7.30.

Consider `COc1ncc(Cl)cc1S(=O)(=O)Nc1ccc(F)c([C@@H]2CCn3c(cnc3-c3ncc[nH]3)C2)c1F` [Compound 64-1, (R)—N-(3-(3-(1H-imidazol-2-yl)-5,6,7,8-tetrahydroimidazo[1,5-a]pyridin-7-yl)-2,4-difluorophenyl)-5-chloro-2-methoxypyridine-3-sulfonamide], for which the pIC50 was > 7.30.

On to `COc1ncc(Cl)cc1S(=O)(=O)Nc1ccc(F)c([C@H]2CCn3c(cnc3-c3ncc[nH]3)C2)c1F` [Compound 64-2, (S)—N-(3-(3-(1H-imidazol-2-yl)-5,6,7,8-tetrahydroimidazo[1,5-a]pyridin-7-yl)-2,4-difluorophenyl)-5-chloro-2-methoxypyridine-3-sulfonamide], for which the pIC50 was > 7.30.

With `Cc1ncc(Cl)cc1S(=O)(=O)Nc1ccc(F)c(-c2ccc3c(-c4nnc[nH]4)ncn3c2)c1F` [Compound 65, 5-chloro-N-[2,4-difluoro-3-[1-(4H-1,2,4-triazol-3-yl)imidazo[1,5-a]pyridin-6-yl]phenyl]-2-methylpyridine-3-sulfonamide], the pIC50 is > 7.30.
